From patent US10744136B2, “Sulfonamide derivatives as JAK inhibitors” (Avista Pharma Solutions, Inc., priority 2018, dated 2020)

Target: T1, JAK1 (Homo sapiens, UniProt P23458)
T1 construct: purchased Thermo Fisher Scientific
Test: Z'-LYTE JAK1 kinase screen (Thermo Fisher Scientific)
Format: biochemical
Settings: 1% DMSO, ATP at Km apparent; for inhibition at 0.01 µM: test compound 10 nM; for inhibition at 0.1 µM: test compound 100 nM; for % Inhibition 1000 nm: test compound 1000 nm (so in the source)
Method: The example compounds were screened for Jak1 activity at Thermo Fisher Scientific, using their Z′-Lyte™ protocol, as described below. Selectivity screening against other kinases can be performed following similar procedures. Z′-LYTE Assay Conditions: The Test Compounds are screened in 1% DMSO (final) in the well. Three screening concentrations (10, 100, and 1000 nM) of test compounds were used. Peptide/Kinase Mixtures: All Peptide/Kinase Mixtures are diluted to a 2× working concentration in the appropriate Kinase Buffer (For JAK1, the 2×JAK1/Tyr 06 mixture is prepared in 50 mM HEPES pH 6.5, 0.01% BRIJ-35, 10 mM MgCl2, 1 mM EGTA, 0.02% NaN3. The final 10 μL Kinase Reaction consists of 21.2-91.5 ng JAK1 and 2 μM Tyr 06 in 50 mM HEPES pH 7.0, 0.01% BRIJ-35, 10 mM MgCl2, 1 mM EGTA, 0.01% NaN3. After the 1 hour Kinase Reaction incubation, 5 μL of a 1:128 dilution of Development Reagent A is added). ATP Solution: All ATP Solutions are diluted to a 4× working concentration in Kinase Buffer (50 mM HEPES pH 7.5, 0.01% BRIJ-35, 10 mM MgCl2, 1 mM EGTA). ATP: Km apparent is previously determined using a Z′-LYTE assay. 10× Novel PKC Lipid Mix: 2 mg/ml Phosphatidyl Serine, 0.2 mg/ml DAG in 20 mM HEPES, pH 7.4, 0.3% CHAPS. For 5 mL 10× Novel PKC Lipid Mix: • 1. Add 10 mgs Phosphatidyl Serine (Avanti Polar Lipids Part #8400032C or 840039C) and 1 mg DAG (Avanti Polar Lipids Part #800811C) to a glass tube. • 2. Remove the chloroform from lipid mixture by evaporating to a clear, thin film under a stream of nitrogen. Continuous rotation of the tube, at an angle to ensure maximum surface area of the lipid solution, will promote the thinnest film. • 3. Add 5 mLs resuspension buffer, 20 mM HEPES, 0.3% CHAPS, pH 7.4, to the dried lipid mix • 4. Heat gently to 50-60° C. for 1-2 minutes and vortex in short intervals until the lipids are dissolved to a clear or slightly hazy solution. The lipids are typically in solution after 2-3 heat/vortex cycles. • 5. Cool to room temperature, aliquot into single use volumes and store at −20° C. Assay Protocol Bar-coded Corning, low volume NBS, black 384-well plate (Corning Cat. #4514) • 1. 100 nL—100× Test Compound in 100% DMSO • 2. 2.4 μL—Kinase buffer • 3. 5 μL—2× Peptide/Kinase Mixture • 4. 2.5 μL—4×ATP Solution • 5. 30-second plate shake • 6. 60-minute Kinase Reaction incubation at room temperature • 7. 5 μL—Development Reagent Solution • 8. 30-second plate shake • 9. 60-minute Development Reaction incubation at room temperature • 10. Read on fluorescence plate reader and analyze the data.

T1 sequence (P23458 whole entry): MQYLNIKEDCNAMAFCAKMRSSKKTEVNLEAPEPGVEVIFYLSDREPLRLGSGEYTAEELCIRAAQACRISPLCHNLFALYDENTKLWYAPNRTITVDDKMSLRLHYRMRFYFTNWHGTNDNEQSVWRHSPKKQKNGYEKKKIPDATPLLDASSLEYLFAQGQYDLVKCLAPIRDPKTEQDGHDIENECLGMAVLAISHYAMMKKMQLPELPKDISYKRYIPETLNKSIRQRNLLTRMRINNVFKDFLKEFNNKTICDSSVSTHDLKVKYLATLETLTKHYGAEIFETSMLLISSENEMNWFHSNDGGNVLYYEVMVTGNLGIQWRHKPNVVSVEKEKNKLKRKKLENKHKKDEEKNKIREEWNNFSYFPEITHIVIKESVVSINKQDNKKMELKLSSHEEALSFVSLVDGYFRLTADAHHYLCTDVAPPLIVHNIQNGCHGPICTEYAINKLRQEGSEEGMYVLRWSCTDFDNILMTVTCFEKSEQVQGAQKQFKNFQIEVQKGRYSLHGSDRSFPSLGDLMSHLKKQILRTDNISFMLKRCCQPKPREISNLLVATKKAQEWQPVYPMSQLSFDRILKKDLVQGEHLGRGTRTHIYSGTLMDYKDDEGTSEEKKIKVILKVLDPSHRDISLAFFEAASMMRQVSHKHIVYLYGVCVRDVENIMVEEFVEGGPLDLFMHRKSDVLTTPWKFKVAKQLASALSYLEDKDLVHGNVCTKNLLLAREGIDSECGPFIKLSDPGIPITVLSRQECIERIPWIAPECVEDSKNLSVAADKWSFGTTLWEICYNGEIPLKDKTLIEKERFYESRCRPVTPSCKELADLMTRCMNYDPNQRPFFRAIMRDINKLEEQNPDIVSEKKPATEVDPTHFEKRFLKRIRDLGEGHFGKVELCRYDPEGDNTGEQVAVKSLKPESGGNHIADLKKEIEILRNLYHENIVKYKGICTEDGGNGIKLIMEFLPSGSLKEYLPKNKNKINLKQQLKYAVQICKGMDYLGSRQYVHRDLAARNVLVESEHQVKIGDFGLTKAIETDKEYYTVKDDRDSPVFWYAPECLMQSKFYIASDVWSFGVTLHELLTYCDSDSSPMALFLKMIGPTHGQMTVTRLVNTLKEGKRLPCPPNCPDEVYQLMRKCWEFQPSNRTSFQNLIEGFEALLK

Row | SMILES | inhibition at 0.01 µM [%] | inhibition at 0.1 µM [%] | % Inhibition 1000 nm [%]
1 | CN(c1ncnc2[nH]ccc12)C1CC2(CC(NS(=O)(=O)CCC(F)(F)F)C2)C1 (centres unmarked) [Compound 21, 3,3,3-trifluoro-N-[2-[methyl(7H-pyrrolo[2,3-d]pyrimidin-4-yl)amino]spiro[3.3]heptan-6-yl]propane-1-sulfonamide] | 46 | 85 | 98
2 | CN(c1ncnc2[nH]ccc12)C1CC2(CC(CNS(C)(=O)=O)C2)C1 (centres unmarked) [Compound 22, N-((6-(methyl(7H-pyrrolo[2,3-d]pyrimidin-4-yl)amino)spiro[3.3]heptan-2-yl)methyl)methanesulfonamide] | 76 | 96 | 
3 | CCS(=O)(=O)NCC1CC2(C1)CC(N(C)c1ncnc3[nH]ccc13)C2 (centres unmarked) [Compound 23, N-((6-(methyl(7H-pyrrolo[2,3-d]pyrimidin-4-yl)amino)spiro[3.3]heptan-2-yl)methyl)ethanesulfonamide] | 66 | 94 | 97
4 | CNS(=O)(=O)C1CC2(CC(N(C)c3ncnc4[nH]cnc34)C2)C1 (centres unmarked) [Compound 24, N-methyl-6-[methyl(9H-purin-6-yl)amino]spiro[3.3]heptane-2-sulfonamide] | 4 | 21 | 72
5 | CNS(=O)(=O)C1CC2(CC(N(C)c3ncnc4[nH]ncc34)C2)C1 (centres unmarked) [Compound 25, N-methyl-6-[methyl(1H-pyrazolo[3,4-d]pyrimidin-4-yl)amino]spiro[3.3]heptane-2-sulfonamide] | 2 | 4 | 19
6 | CN(c1ncnc2[nH]ccc12)C1CC2(C1)CC(S(N)(=O)=O)C2 (centres unmarked) [Compound 28, 6-[methyl(7H-pyrrolo[2,3-d]pyrimidin-4-yl)amino]spiro[3.3]heptane-2-sulfonamide] | 13 | 60 | 94
7 | CN(c1ncnc2[nH]ccc12)C1CC2(C1)CC(S(=O)(=O)N(C)C)C2 (centres unmarked) [Compound 29, N,N-dimethyl-6-[methyl(7H-pyrrolo[2,3-d]pyrimidin-4-yl)amino]spiro[3.3]heptane-2-sulfonamide] | 55 | 92 | 98
8 | CN(c1ncnc2[nH]ccc12)C1CC2(C1)CC(S(=O)(=O)N1CCCC1)C2 (centres unmarked) [Compound 30, N-methyl-N-(2-pyrrolidin-1-ylsulfonylspiro[3.3]heptan-6-yl)-7H-pyrrolo[2,3-d]pyrimidin-4-amine] | 43 | 89 | 99
